Patent publication US4985560A, “Pyridazino(4,5-b)indolizines” (American Home Products Corporation, priority 1990, dated 1991)
Where “and” joins values, the source holds several entries; their conditions need not be identical. Equal entries are not always repeated.

Key:
M1 muscarinic receptor = target: T1, M1 muscarinic receptor (Rattus norvegicus, UniProt P08482); assay: [3H]-Pirenzepine M1 receptor binding, rat brain tissue; conditions: for IC50: [3H]pirenzepine, rat brain tissue; for M2/M1: ratio of M2 IC50 to M1 IC50
T1 construct: from tissue; host or cells: rat brain tissue
T1 sequence (P08482 1-460): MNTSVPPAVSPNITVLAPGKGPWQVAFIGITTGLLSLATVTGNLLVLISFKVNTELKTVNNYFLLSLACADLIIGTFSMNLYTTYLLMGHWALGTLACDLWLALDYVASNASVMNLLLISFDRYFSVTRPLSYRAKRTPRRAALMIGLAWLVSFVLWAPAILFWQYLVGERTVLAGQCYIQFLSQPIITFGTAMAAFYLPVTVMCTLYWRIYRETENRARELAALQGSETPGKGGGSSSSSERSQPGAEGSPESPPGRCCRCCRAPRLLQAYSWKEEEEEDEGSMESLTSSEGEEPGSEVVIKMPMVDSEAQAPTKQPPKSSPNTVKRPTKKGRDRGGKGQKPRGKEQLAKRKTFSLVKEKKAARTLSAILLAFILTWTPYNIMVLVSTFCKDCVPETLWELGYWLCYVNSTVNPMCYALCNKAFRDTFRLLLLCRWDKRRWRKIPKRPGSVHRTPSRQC

M2 receptor = target: T2, M2 receptor (Rattus norvegicus, UniProt P10980); assay: biochemical; format: binding; conditions: read-out: [3H]QNB M2 IC50
T2 sequence (P10980 1-466): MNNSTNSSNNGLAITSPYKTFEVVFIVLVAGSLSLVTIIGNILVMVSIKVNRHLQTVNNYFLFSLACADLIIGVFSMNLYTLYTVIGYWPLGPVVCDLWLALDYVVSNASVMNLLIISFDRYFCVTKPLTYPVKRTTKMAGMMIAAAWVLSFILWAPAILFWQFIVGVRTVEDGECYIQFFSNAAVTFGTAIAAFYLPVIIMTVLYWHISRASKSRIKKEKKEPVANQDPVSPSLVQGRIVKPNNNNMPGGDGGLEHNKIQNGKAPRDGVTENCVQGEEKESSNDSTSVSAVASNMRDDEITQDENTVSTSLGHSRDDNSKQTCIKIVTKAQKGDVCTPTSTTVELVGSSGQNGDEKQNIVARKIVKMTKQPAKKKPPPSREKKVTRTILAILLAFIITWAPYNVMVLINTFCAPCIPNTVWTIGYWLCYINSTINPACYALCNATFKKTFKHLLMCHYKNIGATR

[1] = tested on: scopolamine-induced hyperactivity (muscarinic M1-mediated effect); assay: Reduction of scopolamine-induced hyperactivity (locomotor activity chambers); format: in vivo, rat
Description: The motor activity chambers utilize infrared detectors to assess movement in 3 axes. Total activity measures (vertical+horizontal activity) were collected in 15 minute intervals for 1 hour post-injection. Total activity measures were cumulated across all time intervals for statistical analysis.

[2] = tested on: male Sprague-Dawley (Charles River) rats; assay: Radial arm maze test, scopolamine impairment; format: in vivo, rat
Excerpt: The compound of Example 1 was also studied in the radial arm maze test where male Sprague-Dawley (Charles River) rats on a 23-hour food deprivation schedule were trained in an eight arm radial maze with all arms baited. Each session consisted of two maze exposures, with a time limit of 500 seconds for each exposure. After four correct choices (first exposure), each animal was removed from the maze for one hour then returned with only the remaining four arms baited (second exposure). Choice errors, consisting of delay errors (re-entry into any of the four arms chosen during the first exposure) and current errors (re-entry into any of the four arms chosen during the second exposure), as well as total errors were recorded. Durations for each exposure were also recorded. Statistical analysis were preformed using a One-Way Anova with Dunnetts T-Test comparisons.
All compounds were solubilized in distilled water.

memory loss = conditions: cited from earlier work
[3] = tested on: Alzheimer's patients and healthy elderly patients; conditions: cited from earlier work
[4] = Table 3, 1.0 mg/kg i.p. + scopolamine HBr 0.3 mg/kg s.c.
[5] = Table 3, 3.0 mg/kg i.p. + scopolamine HBr 0.3 mg/kg s.c.
[6] = Table 3, 10.0 mg/kg i.p. + scopolamine HBr 0.3 mg/kg s.c.
[7] = Table 2, physostigmine 0.01 mg/kg i.p., scopolamine-impaired
[8] = first experiment (Table 2), versus scopolamine
[9] = first experiment (Table 2), versus vehicle
[10] = Table 2, scopolamine HBr 0.3 mg/kg s.c. alone
[11] = Table 3, scopolamine HBr 0.3 mg/kg s.c. alone

## CCN(CC)CCCNc1nnc(C)c2c1cc1ccccn12 [Example 1, 1-[(3'-Diethylaminopropyl)amino]-4-methylpyridazino[4,5-b]indolizine]
M1 muscarinic receptor
  IC50: 98 nM
  M2/M1: 42
M2 receptor
  IC50: 4.1 µM
[1]; 30 and 54 mg/kg i.p., scopolamine 1.7 mg/kg s.c.
  total activity versus vehicle-only controls: did not differ from vehicle-only controls
[1]; i.p., scopolamine 1.7 mg/kg s.c., rats
  dose active in reducing scopolamine-induced hyperactivity: 30 mg/kg and 54 mg/kg
[2]; 1.0 mg/kg i.p., Table 3
  total time compared to scopolamine: reduction in time impairment compared to scopolamine
[2]; 3.0 mg/kg i.p., Table 3
  delay time (first exposure) versus vehicle: significantly increased
[2]; 1, 3, 10 mg/kg i.p., Table 3
  current and total errors, dose trend: definite dose-related decrease in scopolamine impairment
  delay errors, dose trend: no dose-related trend
[2]; 3.0 and 10 mg/kg i.p., Table 3
  total time versus vehicle: significantly increased
[2]; [4]
  Mean Errors, Current: 2.00
  Mean Errors, Delay: 1.83
  Mean Errors, Total: 3.67
  Mean Time, Current: 1.83 min
  Mean Time, Delay: 1.03 min
  Mean Time, Total: 2.99 min
[2]; [5]
  Mean Errors, Current: 1.13
  Mean Errors, Delay: 2.38
  Mean Errors, Total: 3.50
  Mean Time, Current: 2.92 min
  Mean Time, Delay: 1.95 min
  Mean Time, Total: 4.96 min
[2]; [6]
  Mean Errors, Current: 0.75
  Mean Errors, Delay: 2.00
  Mean Errors, Total: 2.75
  Mean Time, Current: 3.32 min
  Mean Time, Delay: 1.63 min
  Mean Time, Total: 5.15 min
[2]; all doses tested (1, 3, 10 mg/kg i.p.), Table 3
  impairment caused by scopolamine: reduced the impairment caused by scopolamine
[2]; all groups, Table 3
  current time (second exposure) versus vehicle: significantly increased
[2]; overall conclusion
  cognitive impairment due to cholinergic hypofunction: can reduce cognitive impairment

## Cc1nnc(NCCN(C)C)c2cc3ccccn3c12 [Example 2]
M1 muscarinic receptor
  IC50: 660 nM
  M2/M1: 18
M2 receptor
  IC50: 12 µM

## Cc1nnc(NCCCN(C)C)c2cc3ccccn3c12 [Example 3, N,N-Dimethyl-N'-(4-methylpyridazino[4,5-b]indolizin-1-yl)-1,3-propanediamine]
M1 muscarinic receptor
  IC50: 600 nM
  M2/M1: 24
M2 receptor
  IC50: 9.5 µM

## Cc1nnc(NCCN2CCOCC2)c2cc3ccccn3c12 [Example 4, N-[2-(4-Morpholinyl)ethyl]-4-methylpyridazino[4,5-b]indolizin-1-amine]
M1 muscarinic receptor
  IC50: 2450 nM
  M2/M1: 8
M2 receptor
  IC50: 19 µM

## Cc1nnc(NCCCN2CCOCC2)c2cc3ccccn3c12 [Example 5, N-[3-(4-Morpholinyl)propyl]-4-methylpyridazino[4,5-b]indolizin-1-amine]
M1 muscarinic receptor
  IC50: 270 nM
  M2/M1: 44
M2 receptor
  IC50: 12 µM

## CCN1CCCC1CNc1nnc(C)c2c1cc1ccccn12 (centres unmarked) [Example 6, N-[(1-Ethyl-2-pyrrolidinyl)methyl]-4-methylpyridazino[4,5-b]-indolizin-1-amine]
M1 muscarinic receptor
  IC50: 260 nM
  M2/M1: 24
M2 receptor
  IC50: 6.2 µM

## Cc1nnc(N2CCN(C)CC2)c2cc3ccccn3c12 [Example 7, 4-Methyl-1-(4'-methylpiperazinyl)pyridazino[4,5-b]indolizine]
M1 muscarinic receptor
  IC50: 1000 nM
  M2/M1: 29
M2 receptor
  IC50: 29 µM

## Cc1nnc(NCCCN2CCCCC2)c2cc3ccccn3c12 [Example 8, 4-Methyl-N-[3-(1-piperidinyl)propyl]pyridazino[4,5-b]indolizin-1-amine]
M1 muscarinic receptor
  IC50: 110 nM
  M2/M1: 13
M2 receptor
  IC50: 1.4 µM

## Cc1nnc(NCCCN2CCN(C)CC2)c2cc3ccccn3c12 [Example 9, 4-Methyl-N-[4'-methyl(1-piperazinyl)propyl]pyridazino[4,5-b]indolizin-1-amine]
M1 muscarinic receptor
  IC50: 150 nM
  M2/M1: 19
M2 receptor
  IC50: 2.8 µM

## Cc1nnc(NCCCCN2CCN(C)CC2)c2cc3ccccn3c12 [Example 10, 4-Methyl-N-[4'-methyl(1-piperazinyl)butyl]pyridazino[4,5-b]indolizin-1-amine]
M1 muscarinic receptor
  IC50: 140 nM
  M2/M1: 25
M2 receptor
  IC50: 3.5 µM

## CNC(=O)Oc1ccc2c(c1)[C@]1(C)CCN(C)[C@@H]1N2C [Physostigmine, physostigmine]
[2]; [7]
  Mean Errors, Current: 0.88
  Mean Errors, Delay: 1.13
  Mean Errors, Total: 2.00
  Mean Time, Current: 2.01 min
  Mean Time, Delay: 1.14 min
  Mean Time, Total: 3.25 min
[2]; [8]
  scopolamine impairment in delay, current and total errors: significant reduction in scopolamine impairment in delay, current and total errors
  time compared to scopolamine: significant time reduction compared to scopolamine in both delay time (first exposure) and total time
[2]; [9]
  delay, current and total errors versus vehicle: did not
Memory loss; humans and monkeys
  reversal of muscarinic antagonist-induced memory deficit, humans and monkeys: can be reversed
[3]; due to side-effects, short duration of action, narrow active dose range
  clinical efficacy: neither physostigmine nor arecoline have clinical efficacy

## CN1[C@@H]2C[C@@H](OC(=O)[C@H](CO)c3ccccc3)C[C@H]1[C@@H]1O[C@@H]12 [Scopolamine, scopolamine]
[1]; scopolamine 1.7 mg/kg s.c. alone
  total activity measure: significant increase
[2]; [10]
  Mean Errors, Current: 3.63
  Mean Errors, Total: 6.38
  Mean Time, Current: 2.78 min
  Mean Time, Delay: 2.28 min
  Mean Time, Total: 5.27 min
[2]; [11]
  Mean Errors, Current: 3.57
  Mean Errors, Total: 5.72
  Mean Time, Current: 2.90 min
  Mean Time, Delay: 2.01 min
  Mean Time, Total: 5.14 min
[2]; [9]
  delay, current and total errors versus vehicle: significant increase in delay, current and total errors versus vehicle
  time measures versus vehicle: increased all time measures compared to vehicle
[2]; second experiment (Table 3)
  total errors compared to vehicle: significantly increased total errors compared to vehicle
[2]; second experiment (Table 3), scopolamine alone
  time measures compared to vehicle: increased all time measures compared to vehicle
Memory loss; normal humans and animals (cat, rat, monkey)
  memory loss induced: Memory loss

## lecithin
[3]; Alzheimer's patients and healthy elderly patients
  improvement on cognitive tests: No significant improvement
